The record followed here is patent US20210277015A1, “OGA INHIBITOR COMPOUNDS” (Janssen Pharmaceutica NV, priority 2018, published 2021).

The target in the assay is T1, recombinant human Meningioma Expressed Antigen 5 (MGEA5), also referred to as O-GlcNAcase (OGA) (Homo sapiens, UniProt O60502).
T1 construct: Full length OGA enzyme was purchased at OriGene (cat #TP322411); purchased OriGene TP322411
T1 sequence (O60502 1-916): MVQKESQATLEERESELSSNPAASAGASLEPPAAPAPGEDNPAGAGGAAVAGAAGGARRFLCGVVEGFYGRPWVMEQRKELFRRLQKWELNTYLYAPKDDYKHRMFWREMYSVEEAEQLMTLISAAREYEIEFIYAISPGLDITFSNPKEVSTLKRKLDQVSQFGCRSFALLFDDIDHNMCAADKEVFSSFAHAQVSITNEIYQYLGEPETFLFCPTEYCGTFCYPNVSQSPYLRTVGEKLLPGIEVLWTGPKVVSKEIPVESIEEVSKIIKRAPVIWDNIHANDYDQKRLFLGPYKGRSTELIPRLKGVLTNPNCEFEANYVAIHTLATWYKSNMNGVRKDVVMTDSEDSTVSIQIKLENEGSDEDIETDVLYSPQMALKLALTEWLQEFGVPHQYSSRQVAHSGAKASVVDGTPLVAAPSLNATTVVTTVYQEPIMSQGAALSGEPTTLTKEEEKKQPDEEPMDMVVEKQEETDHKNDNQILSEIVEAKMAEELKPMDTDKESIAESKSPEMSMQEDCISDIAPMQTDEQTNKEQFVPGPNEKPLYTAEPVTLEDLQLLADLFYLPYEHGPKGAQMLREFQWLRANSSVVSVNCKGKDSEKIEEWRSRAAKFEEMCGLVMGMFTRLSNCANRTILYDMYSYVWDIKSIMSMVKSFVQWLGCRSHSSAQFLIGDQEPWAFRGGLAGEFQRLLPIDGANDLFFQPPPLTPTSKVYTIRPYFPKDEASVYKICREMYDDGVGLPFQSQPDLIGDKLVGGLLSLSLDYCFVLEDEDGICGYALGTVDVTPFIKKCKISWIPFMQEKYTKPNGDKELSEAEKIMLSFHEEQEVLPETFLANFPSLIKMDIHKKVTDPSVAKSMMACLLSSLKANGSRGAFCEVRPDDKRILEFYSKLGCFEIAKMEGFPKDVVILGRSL
Description: OGA biochemical assay (inhibition of FM-GlcNAc hydrolysis, fluorescence). The following applies: FM-GlcNAc substrate; for IC50: 6 h at room temperature, read-out: Enzymatic hOGA, pIC50 (converted); for Emax / Enzymatic Emax (%): maximal effect; for Emax: read-out: Enzymatic Emax (%). The source says:
The assay is based on the inhibition of the hydrolysis of fluorescein mono-β-D-N-Acetyl-Glucosamine (FM-GlcNAc) (Mariappa et al. 2015, Biochem J 470:255) by the recombinant human Meningioma Expressed Antigen 5 (MGEA5), also referred to as O-GlcNAcase (OGA). The hydrolysis FM-GlcNAc (Marker Gene technologies, cat #M1485) results in the formation of β-D-N-glucosamineacetate and fluorescein. The fluorescence of the latter can be measured at excitation wavelength 485 nm and emission wavelength 538 nm. An increase in enzyme activity results in an increase in fluorescence signal. Full length OGA enzyme was purchased at OriGene (cat #TP322411). The enzyme was stored in 25 mM Tris.HCl, pH 7.3, 100 mM glycine, 10% glycerol at −20° C. Thiamet G and GlcNAcStatin were tested as reference compounds (Yuzwa et al. 2008 Nature Chemical Biology 4:483; Yuzwa et al. 2012 Nature Chemical Biology 8:393). The assay was performed in 200 mM Citrate/phosphate buffer supplemented with 0.005% Tween-20. 35.6 g Na2HPO4 2 H2O (Sigma, #C0759) were dissolved in 1 L water to obtain a 200 mM solution. 19.2 g citric acid (Merck, #1.06580) was dissolved in 1 L water to obtain a 100 mM solution. pH of the sodium phosphate solution was adjusted with the citric acid solution to 7.2. The buffer to stop the reaction consists of a 500 mM Carbonate buffer, pH 11.0. 734 mg FM-GlcNAc were dissolved in 5.48 mL DMSO to obtain a 250 mM solution and was stored at −20° C. OGA was used at a 2 nM concentration and FM-GlcNAc at a 100 uM final concentration. Dilutions were prepared in assay buffer.
50 nl of a compound dissolved in DMSO was dispensed on Black Proxiplate™ 384 Plus Assay plates (Perkin Elmer, #6008269) and 3 μl fl-OGA enzyme mix added subsequently. Plates were pre-incubated for 60 min at room temperature and then 2 μl FM-GlcNAc substrate mix added. […] Plates were briefly centrifuged for 1 min at 1000 rpm and incubate at room temperature for 6 h. To stop the reaction 5 μl STOP buffer were added and plates centrifuge again 1 min at 1000 rpm. Fluorescence was quantified in the Thermo Scientific Fluoroskan Ascent or the PerkinElmer EnVision with excitation wavelength 485 nm and emission wavelength 538 nm.
For analysis a best-fit curve is fitted by a minimum sum of squares method. From this an IC50 value and Hill coefficient was obtained. High control (no inhibitor) and low control (saturating concentrations of standard inhibitor) were used to define the minimum and maximum values.

Where only a bound is given, the exact number is not on record here.

`COc1cc(O[C@@H]2CCN(C(C)c3ccc4c(n3)OCCO4)C2)cc(C)n1` (mixture of isomers) [Product 76]: the IC50 was 1580 nM and the maximum response (Emax) amounted to 84%.
The matching figures for `COc1cc(CC2(C)CCN(C(C)c3ccc4c(n3)OCCO4)C2)cc(C)n1` (mixture of isomers) [Product 91]: 158 nM and 100%.
On to `Cc1cnc(C[C@H]2CCN(C(C)c3cc4c(cc3F)OCCO4)C2)c(C)n1` (mixture of isomers) [Product 96], for which the IC50 was 63.1 nM and the Emax worked out at 101%.
The matching figures for `Cc1cc(O[C@H]2CCN(C(C)c3ccc4c(n3)OCCO4)C2)cc(C)n1` (mixture of isomers) [Product 70]: 1260 nM and 94%.
On to `Cc1cc(C[C@@H]2CCN(C(C)c3ccc4c(n3)OCCO4)C2)cc(C)n1` (mixture of isomers) [Product 78], for which the IC50 was 63.1 nM and the Emax is 101%.
The like results for `COc1cc(C[C@H]2CCN([C@H](C)c3cc4c(cc3F)NCCO4)C2)cc(C)n1` (racemic) [Product 81] were, in that order, 794 nM and 92%.
Regarding `COc1cc(C[C@@H]2CCN(C(C)c3ccc4c(n3)OCCO4)C2)cc(C)n1` (mixture of isomers) [Product 89], the IC50 was 100 nM and the Emax amounted to 100%.
The like results for `Cc1cc(C[C@H]2CCN([C@H](C)c3ccc4c(c3)OCC4)C2)cc(C)n1` (single isomer, unassigned) [Product 13] were, in that order, 1000 nM and 91%.
With `C[C@H](c1ccc2c(n1)OCCO2)N1CC[C@H](Cc2ncc(F)cc2F)C1` (single isomer, unassigned) [Product 22], the IC50 is more than 10000 nM and the Emax is 32%.
The like results for `CC(c1ccc2c(n1)OCCO2)N1CC[C@H](Cc2ncc(F)cc2F)C1` (single isomer, unassigned) [Product 23] were, in that order, 398 nM and 97%.
Take `Cc1cnc(C[C@H]2CCN(C(C)c3ccc4c(n3)OCCO4)C2)c(C)n1` (single isomer, unassigned) [Product 25]: the IC50 was 158 nM and the “Enzymatic Emax (%)” value stood at 100%.
Take `Cc1cnc(C[C@H]2CCN(C(C)c3ccc4c(n3)OCCO4)C2)c(C)n1` (single isomer, unassigned) [Product 26]: the IC50 is more than 10000 nM and the “Enzymatic Emax (%)” value is reported as 35%.
The matching figures for `CC(c1cc2c(cc1F)OCCO2)N1CC[C@H](Cc2ncc(F)cc2F)C1` (single isomer, unassigned) [Product 28]: 5010 nM and 67%.
Take `COc1cc(O[C@H]2CCN(C(C)c3ccc4c(n3)OCCO4)C2)cc(C)n1` (single isomer, unassigned) [Product 64]: the IC50 was 398 nM and the Emax worked out at 99%.
Turning to `COc1cc(C[C@H]2CCN(C(C)c3nc4c(cc3F)CCO4)C2)cc(C)n1` (single isomer, unassigned) [Product 85], the IC50 was 200 nM and the “Enzymatic Emax (%)” value turned out to be 99%.
For the molecule `COc1cc(C[C@H]2CCN(C(C)c3ccc4c(n3)OCCC4)C2)cc(C)n1` (single isomer, unassigned) [Product 87], the IC50 is 126 nM and the “Enzymatic Emax (%)” value worked out at 99%.
Regarding `COc1cc(C[C@H]2CCN(C(C)c3ccc4c(n3)OCCC4)C2)cc(C)n1` (single isomer, unassigned) [Product 88], the IC50 is more than 10000 nM and the “Enzymatic Emax (%)” value stood at 38%.
In the case of `COc1cc(C[C@]2(C)CCN([C@H](C)c3ccc4c(n3)OCCO4)C2)cc(C)n1` (single isomer, unassigned) [Product 92], the IC50 is 6310 nM and the Emax was 63%.
The matching figures for `COc1cc(C[C@]2(C)CCN([C@@H](C)c3ccc4c(n3)OCCO4)C2)cc(C)n1` (single isomer, unassigned) [Product 93]: 7940 nM and 55%.
The matching figures for `COc1cc(C[C@@]2(C)CCN([C@H](C)c3ccc4c(n3)OCCO4)C2)cc(C)n1` (single isomer, unassigned) [Product 94]: 1000 nM and 93%.
Regarding `Cc1cnc(C[C@H]2CCN(C(C)c3cc4c(cc3F)OCCO4)C2)c(C)n1` (single isomer, unassigned) [Product 97], the IC50 was more than 10000 nM and the “Enzymatic Emax (%)” value is recorded as 37%.
The like results for `Cc1cnc(C[C@H]2CCN(C(C)c3cc4c(cc3F)OCCO4)C2)c(C)n1` (single isomer, unassigned) [Product 98] were, in that order, 31.6 nM and 103%.
In the case of `Cc1cc(C[C@H]2CCN(C(C)c3ccc4c(c3)OCCN4C)C2)cc(C)n1` (stereo partly shown) [Product 1], the IC50 is 2000 nM and the Emax was found to be 85%.
The matching figures for `Cc1cc(C[C@H]2CCN(Cc3ccc4c(c3)OCCN4C)C2)cc(C)n1` [Product 2]: 6170 nM and 61%.
The matching figures for `Cc1cc(C2CCN(C(C)c3ccc4c(n3)OCCO4)C2)cc(C)n1` (stereo not shown) [Product 3]: 501 nM and 99%.
The like results for `COc1cc(C[C@H]2CCN(C(C)c3ccc4c(n3)OCCO4)C2)cc(C(F)(F)F)n1` (stereo partly shown) [Product 4] were, in that order, 100 nM and 103%.
Turning to `Cc1cc(C[C@H]2CCN(C(C)c3ccc4c(n3)OCCO4)C2)cc(C)n1` (stereo partly shown) [Product 12], the IC50 was 158 nM and the Emax is 101%.
The matching figures for `CC(c1ccc2c(n1)OCCO2)N1CC[C@H](Cc2ncc(F)cc2F)C1` (stereo partly shown) [Product 21]: 631 nM and 94%.
`Cc1cnc(C[C@H]2CCN(C(C)c3ccc4c(n3)OCCO4)C2)c(C)n1` (stereo partly shown) [Product 24]: the IC50 was 251 nM and the Emax worked out at 101%.
The matching figures for `CC(c1cc2c(cc1F)OCCO2)N1CC[C@H](Cc2ncc(F)cc2F)C1` (stereo partly shown) [Product 27]: 126 nM and 102%.
The like results for `Cc1cc(C[C@H]2CCN(C(C)c3cc4c(cc3F)OCCO4)C2)cc(C)n1` (stereo partly shown) [Product 30] were, in that order, 20 nM and 102%.
The matching figures for `Cc1cc(C[C@H]2CCN([C@H](C)c3cc4c(cc3F)OCCO4)C2)cc(C)n1` [Product 31]: 631 nM and 96%.
As for `COc1cc(C[C@H]2CCN(C(C)c3cnc4c(c3)C(=O)N(C)CC4)C2)cc(C)n1` (stereo partly shown) [Product 33], the IC50 was 126 nM and the Emax came to 102%.
The matching figures for `COc1cc(C[C@H]2CCN([C@H](C)c3cnc4c(c3)C(=O)N(C)CC4)C2)cc(C)n1` [Product 34]: 7940 nM and 58%.
For `COc1cc(C[C@@H]2CCN([C@H](C)c3cc4c(cc3F)OCCO4)C2)cc(C)n1` [Product 42], the IC50 was 1000 nM and the Emax came out at 93%.

By Emax is commonly meant the maximal effect, on the per cent scale that the assay sets.
